Where two headings read alike, the source gives them in different places.
How the values were obtained:
[1] = physchem
[2] = system: Plasmodium falciparum 3D7-A10 parasites; test: Stage specificity assay (8-h exposure of synchronized stages, IC50^8h); type: cell-based; settings: for IC50: Plasmodium falciparum
[3] = system: 3D7-MR4 trophozoite parasite-infected RBCs; settings: 10 × IC50^72h; ref Allman et al., 2016; cited from earlier work
[4] = system: 3D7-MR4 trophozoite parasite-infected RBCs; test: Metabolomic profiling (hydrophilic metabolite changes, UHPLC-MS); type: cell-based, Plasmodium falciparum
[5] = 1.5 h, 500 μM, pH 7.4
[6] = system: asynchronous 3D7-A10 parasite cultures; test: Standard 72-h exposure asexual blood stage susceptibility assay (IC50^72h); type: cell-based, Plasmodium falciparum; settings: Plasmodium falciparum, 3D7, 72 h, read-out: Overall (72hr assay) Mean IC50 (IC50^72h)

## CCCN(CCC)CC(O)COc1ccccc1C(=O)Nc1ccccc1 (centres unmarked) [MMV006455]
[1]; pH 7.4
  solubility at 1.5 h: > 100 µM
[1]; pH 7.4, aqueous buffer, kinetic from dmso stock
  solubility at 1.5 h: ≥ 500 µM
[2]; 3D7-A10
  Ratio lowest IC50 8hr/IC50 72hr: 1.0
[2]; 8-h exposures, survival curves
  killing in stage specificity assay: incomplete killing at all asexual blood stages
[2]; 3D7, read-out: Early rings IC50 (IC50^8h), 8-h exposure 0–8 hr, bound given in μM
  IC50: > 12.5 µM
[2]; 3D7, read-out: Early trophozoites Mean IC50 (IC50^8h), 8-h exposure 16–24 hr, 3D7-A10, survival at 60 h
  IC50: 0.441 µM
[2]; 3D7, read-out: Late rings IC50 (IC50^8h), 8-h exposure 8–16 hr, bound given in μM
  IC50: > 12.5 µM
[2]; 3D7, read-out: Late trophozoites Mean IC50 (IC50^8h), 8-h exposure 24–32 hr, 3D7-A10, survival at 60 h
  IC50: 0.45 µM
[2]; 3D7, read-out: Schizonts Mean IC50 (IC50^8h), 8-h exposure 32–40 hr, 3D7-A10, survival at 60 h
  IC50: 0.933 µM
[2]; period when the parasite was most susceptible (lowest IC50^8h)
  Stage of peak activity (Figure 6): trophozoites
[2]; stage(s) with the lowest IC50^8h
  Peak Activity (Table S1): Trophs
[3]
  levels of cAMP: decreased
  levels of the deoxyribonucleotides dAMP and dTMP: increased
  peptide levels (hemoglobin catabolism signature): decreased peptide levels
[4]; metabolite 3-phosphoglycerate, log2 fold change
  Log2(fold changes) 3-phosphoglycerate: 0.4787
[4]; metabolite 4-Pyridoxic acid, log2 fold change
  Log2(fold changes) 4-Pyridoxic acid: -0.2918
[4]; metabolite 4-aminobutyrate, log2 fold change
  Log2(fold changes) 4-aminobutyrate: 0.4559
[4]; metabolite 4-phosphopantetheine, log2 fold change
  Log2(fold changes) 4-phosphopantetheine: 0.0000
[4]; metabolite 4-phosphopantothenate, log2 fold change
  Log2(fold changes) 4-phosphopantothenate: 0.3730
[4]; metabolite 5-aminopentanoic acid, log2 fold change
  Log2(fold changes) 5-aminopentanoic acid: 0.0000
[4]; metabolite 5-methyl-THF, log2 fold change
  Log2(fold changes) 5-methyl-THF: 0.0000
[4]; metabolite 5-phosphoribosyl-1-pyrophosphate, log2 fold change
  Log2(fold changes) 5-phosphoribosyl-1-pyrophosphate: -0.9177
[4]; metabolite 6-phospho-D-gluconate, log2 fold change
  Log2(fold changes) 6-phospho-D-gluconate: 0.4580
[4]; metabolite HVDD
  Log2(fold change) HVDD: 0.0000
[4]; metabolite Hydroxyisocaproic acid
  Log2(fold change) Hydroxyisocaproic acid: 0.0000
[4]; metabolite IDP
  Log2(fold change) IDP: 0.0000
[4]; metabolite IMP
  Log2(fold change) IMP: 0.8206
[4]; metabolite Inositol
  Log2(fold change) Inositol: 0.0000
[4]; metabolite Isopentyl-PP
  Log2(fold change) Isopentyl-PP: 0.0000
[4]; metabolite L-arginino-succinate
  Log2(fold change) L-arginino-succinate: 0.0000
[4]; metabolite LD
  Log2(fold change) LD: -0.4790
[4]; metabolite Myristoyl/tetradecanoyl-CoA
  Log2(fold change) Myristoyl/tetradecanoyl-CoA: 0.0000
[4]; metabolite N-Acetyl-L-alanine
  Log2(fold change) N-Acetyl-L-alanine: -0.7708
[4]; metabolite N-acetyl-L-ornithine
  Log2(fold change) N-acetyl-L-ornithine: -1.4120
[4]; metabolite N-acetyl-glucosamine-1/6-phosphate
  Log2(fold change) N-acetyl-glucosamine-1/6-phosphate: 1.1792
[4]; metabolite N-acetyl-glutamate
  Log2(fold change) N-acetyl-glutamate: 0.9055
[4]; metabolite N-acetyl-glutamine
  Log2(fold change) N-acetyl-glutamine: -0.4062
[4]; metabolite N-carbamoyl-L-aspartate
  Log2(fold change) N-carbamoyl-L-aspartate: -1.3580
[4]; metabolite NAD+
  Log2(fold change) NAD+: 0.6496
[4]; metabolite NADH
  Log2(fold change) NADH: -0.2919
[4]; metabolite NADP+
  Log2(fold change) NADP+: 1.1032
[4]; metabolite NADPH
  Log2(fold change) NADPH: 1.2448
[4]; metabolite O-acetyl-L-serine
  Log2(fold change) O-acetyl-L-serine: 0.0000
[4]; metabolite Octoluse 8/1P
  Log2(fold change) Octoluse 8/1P: -0.0556
[4]; metabolite Octoluse Bisphosphate
  Log2(fold change) Octoluse Bisphosphate: 0.1196
[4]; metabolite PD
  Log2(fold change) PD: -1.7411
[4]; metabolite PE
  Log2(fold change) PE: 2.1593
[4]; metabolite PEE
  Log2(fold change) PEE: -6.2592
[4]; metabolite PEEK
  Log2(fold change) PEEK: -3.5426
[4]; metabolite PVNF
  Log2(fold change) PVNF: -1.5028
[4]; metabolite Pyroglutamic acid
  Log2(fold change) Pyroglutamic acid: -0.5503
[4]; metabolite Pyrophosphate
  Log2(fold change) Pyrophosphate: -0.6263
[4]; metabolite Ribose-5-phosphate
  Log2(fold change) Ribose-5-phosphate: 0.0000
[4]; metabolite S-adenosyl-L-homocysteine
  Log2(fold change) S-adenosyl-L-homocysteine: 0.2802
[4]; metabolite S-adenosyl-L-methioninamine
  Log2(fold change) S-adenosyl-L-methioninamine: 0.0000
[4]; metabolite S-adenosyl-L-methionine
  Log2(fold change) S-adenosyl-L-methionine: 0.0000
[4]; metabolite S-methyl-5'-thioadenosine
  Log2(fold change) S-methyl-5'-thioadenosine: 1.5238
[4]; metabolite SD
  Log2(fold change) SD: -2.2607
[4]; metabolite SDL
  Log2(fold change) SDL: 0.0000
[4]; metabolite SID
  Log2(fold change) SID: 0.0000
[4]; metabolite Sedoheptulose bisphosphate
  Log2(fold change) Sedoheptulose bisphosphate: 0.2316
[4]; metabolite Thiamine pyrophosphate
  Log2(fold change) Thiamine pyrophosphate: 0.0000
[4]; metabolite UDP-D-glucose, log2 fold change
  Log2(fold changes) UDP-D-glucose: 0.1600
[4]; metabolite UDP-D-glucuronate, log2 fold change
  Log2(fold changes) UDP-D-glucuronate: -0.0808
[4]; metabolite UDP-N-acetyl-glucosamine, log2 fold change
  Log2(fold changes) UDP-N-acetyl-glucosamine: 0.3510
[4]; metabolite UDP, log2 fold change
  Log2(fold changes) UDP: 0.8505
[4]; metabolite UMP, log2 fold change
  Log2(fold changes) UMP: -0.5223
[4]; metabolite UTP, log2 fold change
  Log2(fold changes) UTP: -1.8892
[4]; metabolite hydroxyphenylpyruvate
  Log2(fold change) hydroxyphenylpyruvate: 0.0000
[4]; metabolite hydroxyproline/Aminolevulinate
  Log2(fold change) hydroxyproline/Aminolevulinate: 0.0000
[4]; metabolite hypoxanthine
  Log2(fold change) hypoxanthine: 0.1926
[4]; metabolite indole
  Log2(fold change) indole: -0.2645
[4]; metabolite inosine
  Log2(fold change) inosine: 0.3717
[4]; metabolite isoleucine
  Log2(fold change) isoleucine: 0.0000
[4]; metabolite lactate
  Log2(fold change) lactate: 1.3382
[4]; metabolite leucine
  Log2(fold change) leucine: 0.0000
[4]; metabolite lysine
  Log2(fold change) lysine: 0.0000
[4]; metabolite malate
  Log2(fold change) malate: 1.2603
[4]; metabolite maleic acid
  Log2(fold change) maleic acid: 0.0000
[4]; metabolite methionine
  Log2(fold change) methionine: 0.0000
[4]; metabolite myo-inositol
  Log2(fold change) myo-inositol: 3.3468
[4]; metabolite nicotinamide mononucleotide
  Log2(fold change) nicotinamide mononucleotide: 0.0000
[4]; metabolite nicotinate
  Log2(fold change) nicotinate: 0.0981
[4]; metabolite ornithine
  Log2(fold change) ornithine: -0.2237
[4]; metabolite orotate
  Log2(fold change) orotate: -1.3257
[4]; metabolite orotidine-5'-phosphate
  Log2(fold change) orotidine-5'-phosphate: 0.0000
[4]; metabolite oxaloacetate
  Log2(fold change) oxaloacetate: 0.0000
[4]; metabolite p-aminobenzoate
  Log2(fold change) p-aminobenzoate: 0.0000
[4]; metabolite p-hydroxybenzoate
  Log2(fold change) p-hydroxybenzoate: 0.4381
[4]; metabolite pantothenate
  Log2(fold change) pantothenate: 0.0000
[4]; metabolite phenylalanine
  Log2(fold change) phenylalanine: 0.0000
[4]; metabolite phenylpyruvate
  Log2(fold change) phenylpyruvate: 0.1142
[4]; metabolite phosphoenolpyruvate
  Log2(fold change) phosphoenolpyruvate: 0.0121
[4]; metabolite prephenate
  Log2(fold change) prephenate: 0.0000
[4]; metabolite proline
  Log2(fold change) proline: 0.0000
[4]; metabolite pyridoxine
  Log2(fold change) pyridoxine: 0.0000
[4]; metabolite pyruvate
  Log2(fold change) pyruvate: 0.4670
[4]; metabolite riboflavin
  Log2(fold change) riboflavin: 0.0000
[4]; metabolite ribose
  Log2(fold change) ribose: 0.0000
[4]; metabolite ribose-phosphate
  Log2(fold change) ribose-phosphate: -0.0481
[4]; metabolite ribulose-5-phosphate
  Log2(fold change) ribulose-5-phosphate: 0.0000
[4]; metabolite serine
  Log2(fold change) serine: 0.0000
[4]; metabolite sn-glycerol-3-phosphate
  Log2(fold change) sn-glycerol-3-phosphate: -0.3619
[4]; metabolite succinate/Methylmalonic acid
  Log2(fold change) succinate/Methylmalonic acid: -0.7549
[4]; metabolite succinyl-CoA/methylmalonyl-CoA
  Log2(fold change) succinyl-CoA/methylmalonyl-CoA: 0.0000
[4]; metabolite taurine
  Log2(fold change) taurine: 0.0000
[4]; metabolite thiamine
  Log2(fold change) thiamine: 0.0000
[4]; metabolite threonine/homoserine
  Log2(fold change) threonine/homoserine: 0.0000
[4]; metabolite thymidine
  Log2(fold change) thymidine: -0.5446
[4]; metabolite thymine, log2 fold change
  Log2(fold changes) thymine: 3.4235
[4]; metabolite trehalose-6-Phosphate, log2 fold change
  Log2(fold changes) trehalose-6-Phosphate: 0.0000
[4]; metabolite tryptophan, log2 fold change
  Log2(fold changes) tryptophan: 0.0000
[4]; metabolite tyrosine, log2 fold change
  Log2(fold changes) tyrosine: 0.0000
[4]; metabolite uridine, log2 fold change
  Log2(fold changes) uridine: 0.2304
[5]
  Ratio fil./std. (absorbance filtrate/standard): 1.00
[6]
  IC50: 439 nM
